In patent US10105348B2, “Use of 2-(5S-methyl-2-oxo-4R-phenyl-pyrrolidin-1-yl)-acetamide in the treatment of seizures” (Latvian Institute of Organic Synthesis, priority 2015, dated 2018):

Assays:
[1] = system: BIC-induced clonic and tonic seizures; test: Timed i.v. bicucculine (BIC) infusion seizure threshold test; type: in vivo; settings: male ICR mice
Experimental: (§1) Male ICR mice (Harlan Laboratories BV, Netherlands, ICR (CD-1)) weighing 23-25 g were housed under standard conditions (21-23° C., 50%±10% relative humidity, 12 h light-dark cycle) with unlimited access to standard food (R70 diet, Lactamin AB, Sweden) and water. All experimental procedures were carried out in accordance with guidelines of the EU Directive 2010/63/EU and were approved by the Ethics Council of Animal Protection at the Veterinary and Food Service, Riga, Latvia.
(§2) To accurately detect even slight modulatory effects on convulsive tendencies, we employed the more sensitive intravenous (i.v.) administration route of pentylenetetrazol (PTZ) administration (Loscher W, Honack D, Fassbender C P, Nolting B (1991). The role of technical, biological and pharmacological factors in the laboratory evaluation of anticonvulsant drugs. III. Pentylenetetrazole seizure models. Epilepsy Res 8:171-189; Mandhane S N, Aavula K, Rajamannar T (2007). Timed pentylenetetrazol infusion test: a comparative analysis with s.c.PTZ and MES models of anticonvulsant screening in mice. Seizure 16:636-644) and used bicucculine (BIC) to inhibit the GABA pathway and to induce seizures (Meldrum B S (1975). Epilepsy and gamma-aminobutyric acid-mediated inhibition. Int Rev Neurobiol 17:1-36.). Chemoconvulsant-induced clonic and tonic seizures were initiated by inserting a 30-gauge needle into the tail vein of mice and infusing PTZ 1% or BIC 0.01% at a constant rate of 10 μl/1 s to restrained animals. Infusion was halted when forelimb clonus followed by tonic seizures of the full body were observed. Minimal doses of PTZ or BIC (mg/kg of mouse weight) necessary to induce clonic and tonic seizures were considered as an index of seizure threshold.
(§3) 2-(5S-Methyl-2-oxo-4R-phenyl-pyrrolidin-1-yl)-acetamide (E1R) was administered i.p. at doses of 10 and 50 mg/kg. The test session was started 60 min after the administration of E1R or saline.

[2] = system: PTZ-induced clonic and tonic seizures; test: Timed i.v. pentylenetetrazol (PTZ) infusion seizure threshold test; type: in vivo; settings: male ICR mice
Experimental: as §1, §2, §3

[3] = E1R 10 mg/kg i.p. 60 min before 0.01% BIC i.v. infusion
[4] = E1R 50 mg/kg i.p. 60 min before 0.01% BIC i.v. infusion
[5] = E1R 10 mg/kg i.p. 60 min before 1% PTZ i.v. infusion
[6] = E1R 50 mg/kg i.p. 60 min before 1% PTZ i.v. infusion

For C[C@H]1[C@@H](c2ccccc2)CC(=O)N1CC(N)=O [E1R, 2-(5S-Methyl-2-oxo-4R-phenyl-pyrrolidin-1-yl)-acetamide], the “Dose of BIC, mg/kg ± SEM, Clonic seizure (threshold)” value [1, 3] was 0.42 ± 0.02 mg/kg, the “Dose of BIC, mg/kg ± SEM, Tonic seizure (threshold)” value [1, 3] was 0.88 ± 0.08 mg/kg and the “Dose of BIC, mg/kg ± SEM, Clonic seizure (threshold)” value [1, 4] was 0.48 ± 0.03 mg/kg. For the same compound, the “Dose of BIC, mg/kg ± SEM, Tonic seizure (threshold)” value [1, 4] was 1.15 ± 0.09 mg/kg, the “Clonic and tonic seizures-inducing doses of BIC, change versus saline (in words)” value ([1]; E1R 50 mg/kg i.p.) was “significant increased” and the “Dose of PTZ, mg/kg ± SEM, Clonic seizure (threshold)” value [2, 5] was 27 ± 2 mg/kg. For the same compound, the “Dose of PTZ, mg/kg ± SEM, Tonic seizure (threshold)” value [2, 5] was 64 ± 6 mg/kg, the “Induction of tonic seizures by PTZ, effect versus saline (in words)” value ([2]; E1R 10 mg/kg i.p.) was “significantly reduced the induction of tonic seizures” and the “Dose of PTZ, mg/kg ± SEM, Clonic seizure (threshold)” value [2, 6] was 30 ± 1 mg/kg. For the same compound, the “Dose of PTZ, mg/kg ± SEM, Tonic seizure (threshold)” value [2, 6] was 80 ± 8 mg/kg and the “Clonic and tonic seizures-inducing doses of PTZ, change versus saline (in words)” value ([2]; E1R 50 mg/kg i.p.) was “significant increased”.
